In US20230303817A1, “BLENDED POLYVINYL ALCOHOL DRUG DELIVERY SYSTEMS” (The University of British Columbia, priority 2020, published 2023):
≈ marks a conversion by molar mass, not a printed value.

Columns and labels:
[1] = Release of other therapeutic agents from blended PVA cast films or electrospun membranes; type: physicochemical; settings: for drug release: 1% gentamicin
Description: Films or electrospun membrane were manufactured as described above containing either docetaxel, doxycycline, gentamicin or bovine serum albumin (BSA; as a protein model for any “biological” based drug such as an antibody). […] Gentamicin was analyzed using a fluorescence tag assay using Fluoraldehyde™ (Thermo Fisher) and BSA protein release was assayed using a BCA protein analysis kit.

[2] = cited from earlier work
[3] = Film swelling and degradation studies in deionized water (cast films and electrospun membranes); type: physicochemical; settings: cast films with 48% and 46% PVA 99% content (rest PVA 88%)
Description: PVA films or electrospun membranes were prepared as described above. These films were then stored for one week in the dark before use. Small sections of films (approximate diameters of 2 cm) were then placed on moist 0.2 µm filter discs (Millipore, Billerica, MA, USA) and weighed. The films and filters were covered with a thin layer of deionized water and left for appropriate times. After set time points the filter discs and adherent PVA-silver gel were moved to a Millipore vacuum apparatus and all excess water was removed from the filter over approximately 15 seconds. The combined PVA gel and filter were reweighed and recovered with a fresh layer of excess water. The weight gain (swelling) and weight loss (dissolution) were then calculated as a percentage of the original dry film weight.

[4] = Silver release studies (inductively coupled plasma analysis of release media); type: physicochemical; settings: electrospun membranes 10:90 PVA99%:PVA88%, 1% w/w silver salt
Description: Films or electrospun membranes containing silver were placed in deionized water and the media sampled at regular intervals for silver analysis by Inductively coupled plasma analysis. Silver calibration standards were run every 10 samples. The instrument held reproducible standard curves over 100 sequential silver analysis with detection limits approximating 10 ng/ml. Each release study was run in triplicate for at least two weeks and the results plotted as the calculated percent silver released as a function of time.

MRSA strain USA300 = test: Antimicrobial efficacy of silver-loaded PVA films and membranes; type: cell-based, S. aureus; settings: for bacterial death: 1% w/w silver, 20 mg in 10 mL, up to 48 hours; for Anti-bacterial (MRSA) activity: 1% w/w silver salt (FIG. 11)
Description: In order to illustrate the antimicrobial activity of PVA-silver formulations, all cast films and electrospun membranes were weighed at 20 mg +/- 0.5 mg. The methicillin resistant strain of S. aureus (MRSA strain USA300) was cultured overnight from freezer stocks (20 µL bacterial sample into 20 mL Luria Bertani (LB) broth), followed by a second sub-culture (200 µL in 20 mL LB broth) until an optical density of -0.3-0.5 at λ=600 nm was reached (measured using an Eppendorf BioPhotometer (Eppendorf, Mississauga, ON, Canada), at which point bacteria were used as outlined below.

[5] = electrospun membranes 10:90 PVA99%:PVA88%

CC(=O)O[C@@]12CO[C@@H]1C[C@H](O)[C@@]1(C)C(=O)[C@H](O)C3=C(C)[C@@H](OC(=O)[C@H](O)[C@@H](NC(=O)OC(C)(C)C)c4ccccc4)C[C@@](O)([C@@H](OC(=O)c4ccccc4)[C@H]21)C3(C)C [docetaxel]
drug release, % of total drug ([1]; electrospun membranes 35:65, 45:55 or 55:45 PVA 99%:88%, 1% docetaxel, over 7 days): 5-8%

C[C@H]1c2cccc(O)c2C(=O)C2=C(O)[C@]3(O)C(=O)C(C(N)=O)=C(O)[C@@H](N(C)C)[C@@H]3[C@@H](O)[C@@H]21 [doxycycline]
water solubility [2]: 500 µg/mL (≈ 1130 µM)

O=S(=O)([O-])[O-].[Ag+].[Ag+] [silver sulphate]
swelling at 6 hours [3]: > 0%
silver release by day 11 [4]: 75%
bacterial death (MRSA strain USA300; cast films 40:60 PVA99%:PVA88%): 100%
Anti-bacterial (MRSA) activity (MRSA strain USA300; [5]): killed all MRSA bacteria
bacterial death (MRSA strain USA300; [5]): 100%
Anti-bacterial (MRSA) activity (MRSA strain USA300; films 40:60 PVA99%:PVA88%): killed all MRSA bacteria

gentamicin
drug release ([1]; cast films 35:65, 45:55 or 55:45 PVA 99%:88%, over 7 days): 50-70%
drug release ([1]; electrospun membranes 35:65, 45:55 or 55:45 PVA 99%:88%, over 6 days): 40%
